# Measured values reported in patent publication EP3436445B1, “HISTONE DEMETHYLASE INHIBITORS” (Celgene Quanticel Research, Inc., priority 2016, dated 2017).
# Target: T1, Jarid1B (Homo sapiens, UniProt Q9UGL1)
# T1 construct: purchased BPS Bioscience (or custom made by MolecularThroughput) 50121
# T1 sequence (Q9UGL1 2-751): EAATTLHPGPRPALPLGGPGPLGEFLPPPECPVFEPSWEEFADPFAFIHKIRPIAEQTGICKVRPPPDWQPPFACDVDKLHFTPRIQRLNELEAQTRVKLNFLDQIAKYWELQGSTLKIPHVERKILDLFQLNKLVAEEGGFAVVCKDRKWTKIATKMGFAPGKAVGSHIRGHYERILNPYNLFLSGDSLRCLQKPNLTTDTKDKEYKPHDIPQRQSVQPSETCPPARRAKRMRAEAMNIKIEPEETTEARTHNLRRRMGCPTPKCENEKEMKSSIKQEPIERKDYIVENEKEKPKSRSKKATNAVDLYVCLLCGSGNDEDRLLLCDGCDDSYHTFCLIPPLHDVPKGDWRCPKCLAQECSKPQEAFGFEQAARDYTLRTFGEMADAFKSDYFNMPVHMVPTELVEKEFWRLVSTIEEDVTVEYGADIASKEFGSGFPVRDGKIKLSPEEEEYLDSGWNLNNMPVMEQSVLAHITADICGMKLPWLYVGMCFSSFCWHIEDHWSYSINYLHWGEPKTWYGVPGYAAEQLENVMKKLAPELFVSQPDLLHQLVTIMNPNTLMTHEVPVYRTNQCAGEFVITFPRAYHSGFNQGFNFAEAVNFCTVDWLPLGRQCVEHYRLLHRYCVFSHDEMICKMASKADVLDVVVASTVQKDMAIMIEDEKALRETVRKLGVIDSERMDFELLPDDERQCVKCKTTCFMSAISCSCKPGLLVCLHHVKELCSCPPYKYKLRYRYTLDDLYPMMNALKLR
# Assay: Jarid1B in vitro enzyme inhibition assay (TR-FRET)
# Format: biochemical
# Details: Table 5; 0.8 nM Jarid1B, H3K4me3-biotin labeled peptide; read-out: JARID1B IC5
# Text: This assay determines the ability of a test compound to inhibit Jarid1B, JMJD2C and JMJD3 demethylase activity. Baculovirus expressed Jarid1B (GenBank Accession #NM-006618, AA 2-751) was purchased from BPS Bioscience (Cat #50121) or custom made by MolecularThroughput. Baculovirus expressed JMJD2C (GenBank Accession #BC143571, AA 2-372) was purchased from BPS Bioscience (Cat#50105). Baculovirus expressed JMJD3 (GenBank Accession #NM-001080424, AA1043-end) was purchased from BPS Bioscience (Cat#50115).
# The ability of test compounds to inhibit the activity of Jarid1B was determined in 384-well plate format under the following reaction conditions: 0.8 nM Jarid1B, 300 nM H3K4me3-biotin labeled peptide (Anaspec cat #64357), 2 µM alpha-ketoglutaric acid in assay buffer of 50 mM HEPES, pH7.3, 0.005% Brij35, 0.5 mM TCEP, 0.2 mg/ml BSA, 50 µM sodium L-ascorbate, and 2 µM ammonium iron(II) sulfate. Reaction product was determined quantitatively by TR-FRET after the addition of detection reagent Phycolink Streptavidin-allophycocyanin (Prozyme) and Europium-anti-mono-or di-methylated histone H3 lysine 4 (H3K4me1-2) antibody (PerkinElmer) in the presence of 5 mM EDTA in LANCE detection buffer (PerkinElmer) at a final concentration of 25 nM and 1 nM, respectively.
# The assay reaction was initiated by the following: 2 µl of the mixture of 900 nM H3K4me3-biotin labeled peptide and 6 µM alpha-ketoglutaric acid with 2 µl of 11-point serial diluted inhibitor in 3% DMSO was added to each well of the plate, followed by the addition of 2 µl of 2.4 nM Jarid1B to initiate the reaction. The reaction mixture was incubated at room temperature for 30 minutes, and terminated by the addition of 6 µl of 5 mM EDTA in LANCE detection buffer containing 50 nM Phycolink Streptavidin-allophycocyanin and 2 nM Europium-anti-H3K4me1-2 antibody. Plates were read by EnVisionMultilabel Reader in TR-FRET mode (excitation at 320 nm, emission at 615 nm and 665 nm) after 1 hour incubation at room temperature. A ratio was calculated (665/615) for each well and fitted to determine inhibition constant (IC50).
row,Compound,IC50 [nM]
1,"Cc1ccc2c(c1)C(Cn1cnc(-c3cc(-c4nn[nH]c4C(F)(F)F)ccn3)c1)CCC2 (centres unmarked) [Example 103, 2-{1-[(7-methyl-1,2,3,4-tetrahydronaphthalen-1-yl)methyl]-1H-imidazol-4-yl}-4-[5-(trifluoromethyl)-1H-1,2,3-triazol-4-yl]pyridine]",≤ 100
2,"O=C(c1ccccc1)N1CCC[C@@H](n2cnc(-c3cc(-c4nn[nH]c4C(F)(F)F)ccn3)c2)C1 [Example 89, 2-{1-[(3R)-1-benzoylpiperidin-3-yl]-1H-imidazol-4-yl}-4-[5-(trifluoromethyl)-1H-1,2,3-triazol-4-yl]pyridine]",≤ 100
3,"Fc1ccc(F)c(CCn2cnc(-c3cc(-c4nn[nH]c4C(F)(F)F)ccn3)c2)c1 [Example 88, 2-{1-[2-(2,5-difluorophenyl)ethyl]-1H-imidazol-4-yl}-4-[5-(trifluoromethyl)-1H-1,2,3-triazol-4-yl]pyridine]",≤ 100
4,"FC(F)(F)c1ccc(CCn2cnc(-c3cc(-c4nn[nH]c4C(F)(F)F)ccn3)c2)cc1 [Example 94, 4-[5-(trifluoromethyl)-1H-1,2,3-triazol-4-yl]-2-(1-{2-[4-(trifluoromethyl)phenyl]ethyl}-1H-imidazol-4-yl)pyridine]",100 to 1000
5,"CCC(c1ccccc1)n1cnc(-c2cc(-c3nn[nH]c3C(F)(F)F)ccn2)c1 (centres unmarked) [Example 74, 2-[1-(1-phenylpropyl)-1H-imidazol-4-yl]-4-[5-(trifluoromethyl)-1H-1,2,3-triazol-4-yl]pyridine]",100 to 1000
6,"Fc1cccc(Cl)c1CCn1cnc(-c2cc(-c3nn[nH]c3C(F)(F)F)ccn2)c1 [Example 80, 2-{1-[2-(2-chloro-6-fluorophenyl)ethyl]-1H-imidazol-4-yl}-4-[5-(trifluoromethyl)-1H-1,2,3-triazol-4-yl]pyridine]",100 to 1000
7,"COc1ccc2c(c1)CCCC2Cn1cnc(-c2cc(-c3nn[nH]c3C(F)(F)F)ccn2)c1 (centres unmarked) [Example 105, 2-{1-[(6-methoxy-1,2,3,4-tetrahydronaphthalen-1-yl)methyl]-1H-imidazol-4-yl}-4-[5-(trifluoromethyl)-1H-1,2,3-triazol-4-yl]pyridine]",100 to 1000
8,"FC(F)(F)c1[nH]nnc1-c1ccnc(-c2cn(Cc3ccc(Cl)cc3)cn2)c1 [Example 63, 2-{1-[(4-chlorophenyl)methyl]-1H-imidazol-4-yl}-4-[5-(trifluoromethyl)-1H-1,2,3-triazol-4-yl]pyridine]",100 to 1000
9,"O=C(c1ccccc1)N1CCC[C@H](n2cnc(-c3cc(-c4nn[nH]c4C(F)(F)F)ccn3)c2)C1 [Example 90, 2-{1-[(3S)-1-benzoylpiperidin-3-yl]-1H-imidazol-4-yl}-4-[5-(trifluoromethyl)-1H-1,2,3-triazol-4-yl]pyridine]",≤ 100
10,"Cc1ccc(CCn2cnc(-c3cc(-c4nn[nH]c4C(F)(F)F)ccn3)c2)cc1 [Example 91, 2-{1-[2-(4-methylphenyl)ethyl]-1H-imidazol-4-yl}-4-[5-(trifluoromethyl)-1H-1,2,3-triazol-4-yl]pyridine]",100 to 1000
11,FC(F)(F)c1[nH]nnc1-c1ccnc(-c2cn(CCc3ccccc3Cl)cn2)c1 [Example 57],≤ 100
12,"Fc1cccc(F)c1CCn1cnc(-c2cc(-c3nn[nH]c3C(F)(F)F)ccn2)c1 [Example 87, 2-{1-[2-(2,6-difluorophenyl)ethyl]-1H-imidazol-4-yl}-4-[5-(trifluoromethyl)-1H-1,2,3-triazol-4-yl]pyridine]",100 to 1000
13,"Fc1cccc(F)c1Cn1cnc(-c2cc(-c3nn[nH]c3C(F)(F)F)ccn2)c1 [Example 69, 2-{1-[(2,6-difluorophenyl)methyl]-1H-imidazol-4-yl}-4-[5-(trifluoromethyl)-1H-1,2,3-triazol-4-yl]pyridine]",100 to 1000
14,"CC(c1ccccc1)n1cnc(-c2cc(-c3nn[nH]c3C(F)(F)F)ccn2)c1 (centres unmarked) [Example 73, 2-[1-(1-phenylethyl)-1H-imidazol-4-yl]-4-[5-(trifluoromethyl)-1H-1,2,3-triazol-4-yl]pyridine]",100 to 1000
15,"FC(F)(F)c1ccccc1CCn1cnc(-c2cc(-c3nn[nH]c3C(F)(F)F)ccn2)c1 [Example 60, 4-[5-(trifluoromethyl)-1H-1,2,3-triazol-4-yl]-2-(1-{2-[2-(trifluoromethyl)phenyl]ethyl}-1H-imidazol-4-yl)pyridine]",≤ 100
16,"Fc1ccccc1Cn1cnc(-c2cc(-c3nn[nH]c3C(F)(F)F)ccn2)c1 [Example 62, 2-{1-[(2-fluoroprtenyl)methyl]-1H-imidazol-4-yl}-4-[5-(trifluoromethyl)-1H-1,2,3-triazol-4-yl]pyridine]",100 to 1000
17,"Fc1ccc2c(c1)C(Cn1cnc(-c3cc(-c4nn[nH]c4C(F)(F)F)ccn3)c1)CCC2 (centres unmarked) [Example 101, 2-{1-[(7-fluoro-1,2,3,4-tetrahydronaphthalen-1-yl)methyl]-1H-imidazol-4-yl}-4-[5-(trifluoromethyl)-1H-1,2,3-triazol-4-yl]pyridine]",≤ 100
18,"Cc1ccc2c(c1)CCCC2Cn1cnc(-c2cc(-c3nn[nH]c3C(F)(F)F)ccn2)c1 (centres unmarked) [Example 102, 2-{1-[(6-methyl-1,2,3,4-tetrahydronaphthalen-1-yl)methyl]-1H-imidazol-4-yl}-4-[5-(trifluoromethyl)-1H-1,2,3-triazol-4-yl]pyridine]",100 to 1000
19,"Fc1cccc(CCn2cnc(-c3cc(-c4nn[nH]c4C(F)(F)F)ccn3)c2)c1 [Example 78, 2-{1-[2-(3-fluorophenyl)ethyl]-1H-imidazol-4-yl}-4-[5-(trifluoromethyl)-1H-1,2,3-triazol-4-yl]pyridine]",≤ 100
20,"Fc1ccc2c(c1)CCCC2Cn1cnc(-c2cc(-c3nn[nH]c3C(F)(F)F)ccn2)c1 (centres unmarked) [Example 100, 2-{1-[(6-fluoro-1,2,3,4-tetrahydronaphthalen-1-yl)methyl]-1H-imidazol-4-yl}-4-[5-(trifluoromethyl)-1H-1,2,3-triazol-4-yl]pyridine]",≤ 100
21,"Fc1ccccc1CCn1cnc(-c2cc(-c3nn[nH]c3C(F)(F)F)ccn2)c1 [Example 84, 2-{1-[2-(2-fluorophenyl)ethyl]-1H-imidazol-4-yl}-4-[5-(trifluoromethyl)-1H-1,2,3-triazol-4-yl]pyridine]",≤ 100
22,"FC(F)(F)c1[nH]nnc1-c1ccnc(-c2cn(CCc3ccc(Cl)cc3)cn2)c1 [Example 92, 2-{1-[2-(4-chlorophenyl)ethyl]-1H-imidazol-4-yl}-4-[5-(trifluoromethyl)-1H-1,2,3-triazol-4-yl]pyridine]",100 to 1000
23,"Fc1ccc(Cn2cnc(-c3cc(-c4nn[nH]c4C(F)(F)F)ccn3)c2)cc1 [Example 61, 2-{1-[(4-fluorophenyl)methyl]-1H-imidazol-4-yl}-4-[5-(trifluoromethyl)-1H-1,2,3-triazol-4-yl]pyridine]",100 to 1000
